Columns and labels:
MMP01 = target: T1, MMP01 (Homo sapiens, UniProt P03956); assay: Thiopeptolide assay, MMP01; format: biochemical; settings: Tables 2, 3, 5, 7; read-out: IC50 MMP1
T1 construct: purchased Washington University School of Medicine, St. Louis, Mo
T1 sequence (P03956 100-469): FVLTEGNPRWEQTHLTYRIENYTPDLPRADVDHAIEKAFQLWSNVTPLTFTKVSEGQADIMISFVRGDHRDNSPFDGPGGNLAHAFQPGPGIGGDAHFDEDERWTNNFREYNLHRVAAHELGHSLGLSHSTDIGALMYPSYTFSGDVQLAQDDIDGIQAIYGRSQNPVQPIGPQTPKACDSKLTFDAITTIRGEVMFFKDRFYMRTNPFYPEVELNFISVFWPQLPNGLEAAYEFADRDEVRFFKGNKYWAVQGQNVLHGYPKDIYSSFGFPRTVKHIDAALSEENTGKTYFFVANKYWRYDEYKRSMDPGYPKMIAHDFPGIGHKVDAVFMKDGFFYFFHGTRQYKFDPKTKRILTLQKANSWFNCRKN
Method: (§1) MMP01, MMP07, MMP09, and MMP13 activity was assayed in a method similar to MMP02 and MMP03 (SCD and GCD). MMP01 and MMP09 can be obtained from Washington University School of Medicine, St. Louis, Mo. MMP07 can be obtained in accordance with the known procedure set forth by Ye QZ, Johnson L. L., and Baragi V., "Gene Syntheses and Expression in E. coli for PUMP, a Human Matrix Metalloproteinase" Biochem. and Biophys. […] MMP 13 can be obtained in accordance with the known procedure set forth by Freije J. M. P., et al., "Molecular Cloning and Expression of Collegenase-3, a Novel Human Matrix Metalloproteinase Produced by Breast Carcinomas" J. Bio.
(§2) Hydrolysis of the thiopeptolide substrate Ac-Pro-Leu-Gly-thioester-Leu-Leu-Gly-OEt (Bachem) is used as the primary screen to determine IC50 values for MMP inhibitors. A 100 μL reaction contains 1 mM 5,5'-dithiobis(2-nitrobenzoic acid) (DTNB), 100 μM substrate, 0.1% Brij, enzyme, and inhibitor in the appropriate reaction buffer. Activated full-length enzymes are assayed at 5 nM, Stromelysin Catalytic Domain (SCD) at 10 nM, and Gelatinase A Catalytic Domain (GaCD) at 1 nM. Inhibitors are screened from 100 μM to 1 nM. Full-length enzymes are assayed in 50 mM HEPES, 10 mM CaCl2, pH 7.0; SCD in 50 mM MES, 10 mM CaCl2, pH 6.0; and GaCD in 50 mM MOPS, 10 mM CaCl2, 10 μM ZnCl2, pH 7.0.

MMP-13CD = assay: Thiopeptolide assay, MMP-13CD; format: biochemical, human; settings: Tables 2, 3, 5, 7
Method: IC50 values were determined using a thiopeptolide substrate, Ac-Pro-Leu-Gly-thioester-Leu-Leu-Gly-OEt (Ye Q.-Z., Johnson L. L., Hupe D. J., and Baragi V., "Purification and Characterization of the Human Stromelysin Catalytic Domain Expressed in Escherichia coli," Biochemistry, 1992;31:11231-11235). MMP01, MMP07, MMP09, and MMP13 activity was assayed in a method similar to MMP02 and MMP03 (SCD and GCD). MMP01 and MMP09 can be obtained from Washington University School of Medicine, St. Louis, Mo. MMP07 can be obtained in accordance with the known procedure set forth by Ye QZ, Johnson L. L., and Baragi V., "Gene Syntheses and Expression in E. coli for PUMP, a Human Matrix Metalloproteinase" Biochem. and Biophys. Res. Comm., 1992; 186:143-149. MMP 13 can be obtained in accordance with the known procedure set forth by Freije J. M. P., et al., "Molecular Cloning and Expression of Collegenase-3, a Novel Human Matrix Metalloproteinase Produced by Breast Carcinomas" J. Bio. Chem., 1994;269:16766-6773.
as §2, with “7.0. The change in absorbance at 405 riM is monitored on a ThermoMax microplate reader at room temperature continuously for 20 minutes.” for “7.0.”

[1] = target: gelatinase A catalytic domain (MMP02); assay: Thiopeptolide assay, gelatinase A catalytic domain (GCD, MMP02); format: biochemical; settings: Tables 2, 3, 5, 7; read-out: IC50 MMP-2CD
Method: as §2

MMP07 = target: T2, MMP07 (Homo sapiens, UniProt P09237); assay: Thiopeptolide assay, MMP07; format: biochemical; settings: Tables 2, 3, 5, 7; read-out: IC50 MMP-7
T2 construct: made in house; host or cells: Escherichia coli
T2 sequence (P09237 95-267): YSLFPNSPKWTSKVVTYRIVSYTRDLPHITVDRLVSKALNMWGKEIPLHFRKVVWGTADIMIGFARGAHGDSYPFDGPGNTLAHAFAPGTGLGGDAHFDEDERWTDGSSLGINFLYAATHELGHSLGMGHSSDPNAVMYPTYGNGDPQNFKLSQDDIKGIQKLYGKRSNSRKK
Method: as §1, §2

[2] = target: T3, stromelysin-1 catalytic domain (MMP03) (Homo sapiens, UniProt P08254); assay: Thiopeptolide assay, stromelysin-1 catalytic domain (SCD, MMP03); format: biochemical; settings: Tables 2, 3, 5, 7; read-out: IC50 MMP 3CD
T3 construct: SCD (stromelysin-1 catalytic domain); made in house; host or cells: Escherichia coli
T3 sequence (P08254 100-272 limits assumed): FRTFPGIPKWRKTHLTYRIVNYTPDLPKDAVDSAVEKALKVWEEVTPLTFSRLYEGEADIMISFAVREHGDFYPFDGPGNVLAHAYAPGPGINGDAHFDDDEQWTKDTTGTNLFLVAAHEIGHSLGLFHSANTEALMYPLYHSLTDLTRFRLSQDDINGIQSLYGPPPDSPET
Method: as §2

SMILES | IC50 (MMP01) | IC50 (MMP-13CD) | IC50 [1] | IC50 (MMP07) | IC50 [2]
O=C(CCCc1ccc([N+](=O)[O-])cc1)NCCCCC(NS(=O)(=O)c1ccc2oc3ccccc3c2c1)C(=O)O (stereo not shown) [Example A21, 2-(Dibenzofuran-2-sulfonylamino)-6-[4-(4-nitro-phenyl)-butyrylamino]-hexanoic acid] | > 100 µM | 9.2 µM | 3300 nM | > 100 µM | 7.5 µM
CC(O)CNC(=O)CCC(NS(=O)(=O)c1ccc2oc3ccccc3c2c1)C(=O)O (stereo not shown) [Example F3, 2-(Dibenzofuran-2-sulfonylamino)-4-(2-hydroxy-propylcarbamoyl)-butyric acid] | > 100 µM | 24.1 µM | 3900 nM | > 100 µM | 8.7 µM
O=C(O)C(CCCCNC(=S)NCc1ccccc1)NS(=O)(=O)c1ccc2oc3ccccc3c2c1 (stereo not shown) [Example B5, 6-(3-Benzyl-thioureido)-2-(dibenzofuran-2-sulfonylamino)-hexanoic acid] | > 100 µM | 3.3 µM | 1200 nM | > 100 µM | 2.3 µM
O=C(CCC(NS(=O)(=O)c1ccc2oc3ccccc3c2c1)C(=O)O)NCCc1ccncc1 (stereo not shown) [Example F1, 2-(Dibenzofuran-2-sulfonylamino)-4-(2-pyridin-4-yl-ethylcarbamoyl)-butyric acid] | > 100 µM | 4.1 µM | 1400 nM | 62 µM | 1.9 µM
O=C(CCC(NS(=O)(=O)c1ccc2oc3ccccc3c2c1)C(=O)O)NCCCCc1ccccc1 (stereo not shown) [Example F13, 2-(Dibenzofuran-2-sulfonylamino)-4-(4-phenyl-butylcarbamoyl)-butyric acid] | > 100 µM | 24.1 µM | 9300 nM | > 100 µM | 26.5 µM
O=C(COc1cccc2ccccc12)NCCCCC(NS(=O)(=O)c1ccc2oc3ccccc3c2c1)C(=O)O (stereo not shown) [Example A14, 2-(Dibenzofuran-2-sulfonylamino)-6-[2-(naphthalen-1-yloxy)acetylamino]-hexanoic acid] | > 100 µM | 42.6 µM | 7800 nM | > 100 µM | 5.2 µM
COc1ccccc1CCC(=O)NCCCCC(NS(=O)(=O)c1ccc2oc3ccccc3c2c1)C(=O)O (stereo not shown) [Example A25] | > 100 µM | 5.2 µM | 1800 nM | > 100 µM | 5.2 µM
O=C(CCC(NS(=O)(=O)c1ccc2oc3ccccc3c2c1)C(=O)O)NCc1cccs1 (stereo not shown) [Example F7, 2-(Dibenzofuran-2-sulfonylamino)-4-[(thiophen-2-ylmethyl)-carbamoyl]-butyric acid] | 40.9 µM | 0.3 µM | 300 nM | 12.3 µM | 0.4 µM
CC(C)(Oc1ccc(Cl)cc1)C(=O)NCCCCC(NS(=O)(=O)c1ccc2oc3ccccc3c2c1)C(=O)O (stereo not shown) [Example A1, 6-[2-(4-Chloro-phenoxy)-2-methyl-propionylamino]-2-(dibenzofuran-2-sulfonylamino)-hexanoic acid] | > 100 µM | 11 µM | 5200 nM | > 100 µM | 9.6 µM
COc1ccccc1CNC(=O)CCC(NS(=O)(=O)c1ccc2oc3ccccc3c2c1)C(=O)O (stereo not shown) [Example F15, 2-(Dibenzofuran-2-sulfonylamino)-4-(2-methoxy-benzylcarbamoyl)-butyric acid] | > 100 µM | 0.6 µM | 300 nM | 36.9 µM | 1.8 µM
O=C(O)C(CCCCNS(=O)(=O)c1ccc(F)cc1)NS(=O)(=O)c1ccc2oc3ccccc3c2c1 (stereo not shown) [Example D1, 2-(Dibenzofuran-2-sulfonylamino)-6-(4-fluoro-benzenesulfonylamino)-hexanoicacid] | > 100 µM | 2.4 µM | 1700 nM | > 100 µM | 2.9 µM
COc1ccc(S(=O)(=O)NCCCCC(NS(=O)(=O)c2ccc3oc4ccccc4c3c2)C(=O)O)cc1 (stereo not shown) [Example D2, 2-(Dibenzofuran-2-sulfonylamino)-6-(4-methoxy-benzenesulfonylamino)-hexanoic acid] | > 100 µM | 7.1 µM | 1800 nM | > 100 µM | 4.6 µM
O=C(Cc1ccc2c(c1)OCO2)NCCCCC(NS(=O)(=O)c1ccc2oc3ccccc3c2c1)C(=O)O (stereo not shown) [Example A19, 6-(2-Benzo[1,3]dioxol-5-yl-acetylamino)-2-(dibenzofuran-2-sulfonylamino)-hexanoic acid] | > 100 µM | 3 µM | 1000 nM | 92.9 µM | 1.7 µM
O=C(O)C(CCCCNS(=O)(=O)c1ccc2ccccc2c1)NS(=O)(=O)c1ccc2oc3ccccc3c2c1 (stereo not shown) [Example D8, 2-(Dibenzofuran-2-sulfonylamino)-6-(naphthalene-2-sulfonylamino)-hexanoic acid] | > 100 µM | 39 µM | 7000 nM | > 100 µM | 19 µM
O=C(NCCCCC(NS(=O)(=O)c1ccc2oc3ccccc3c2c1)C(=O)O)Nc1ccc(Cl)c(Cl)c1 (stereo not shown) [Example B2, 2-(Dibenzofuran-2-sulfonylamino)-6-[3-(3,4dichloro-phenyl)-ureido]-hexanoicacid] | > 100 µM | > 100 µM | 22200 nM | > 100 µM | 89.3 µM
O=C(O)C(CCCCNC(=S)Nc1cccnc1)NS(=O)(=O)c1ccc2oc3ccccc3c2c1 (stereo not shown) [Example B3, 2-(Dibenzofuran-2-sulfonylamino)-6-(3-pyridin-3-yl-thioureido)-hexanoic acid] | > 100 µM | 13.6 µM | 2100 nM | 93.5 µM | 6.1 µM
O=C(CCc1ccncc1)NCCCCC(NS(=O)(=O)c1ccc2oc3ccccc3c2c1)C(=O)O (stereo not shown) [Example A22, 2-(Dibenzofuran-2-sulfonylamino)-6-(3-pyridin4-yl-propionylamino)-hexanoic Acid] | > 100 µM | 10 µM | 3000 nM | > 100 µM | 9 µM

Source: patent US6294674A, “Dibenzofuran sulfonamide matrix metalloproteinase inhibitors” (priority 1999, dated 2001)
